In patent US12281080B2, “Quinoline-based compounds and methods of inhibiting CDK8/19” (University of South Carolina, priority 2018, dated 2025):

Columns and labels:
[1] = target: ABL1(Q252H)-phosphorylated (Homo sapiens (Human), UniProt P00519, Q252H); experiment: KINOMEscan scanMAX; type: binding; details: 2000 nM; read-out: Percent Control
[2] = target: ABL1(Y253F)-phosphorylated (Homo sapiens (Human), UniProt P00519, Y253F); experiment: KINOMEscan scanMAX; type: binding; details: 2000 nM; read-out: Percent Control
[3] = target: ABL2 (Homo sapiens (Human), UniProt P42684); experiment: KINOMEscan scanMAX; type: binding; details: 2000 nM; read-out: Percent Control
[4] = target: AKT2 (Homo sapiens (Human), UniProt P31751); experiment: KINOMEscan scanMAX; type: binding; details: 2000 nM; read-out: Percent Control
[5] = target: AMPK-alpha2 (PRKAA2) (Homo sapiens (Human), UniProt P54646); experiment: KINOMEscan scanMAX; type: binding; details: 2000 nM; read-out: Percent Control
[6] = target: CDC2L5 (CDK13) (Homo sapiens (Human), UniProt Q14004); experiment: KINOMEscan scanMAX; type: binding; details: 2000 nM; read-out: Percent Control
[7] = target: CDKL5 (Homo sapiens (Human), UniProt O76039); experiment: KINOMEscan scanMAX; type: binding; details: 2000 nM; read-out: Percent Control
[8] = target: DAPK3 (Homo sapiens (Human), UniProt O43293); experiment: KINOMEscan scanMAX; type: binding; details: 2000 nM; read-out: Percent Control
[9] = target: EPHA6 (Homo sapiens (Human), UniProt Q9UF33); experiment: KINOMEscan scanMAX; type: binding; details: 2000 nM; read-out: Percent Control
[10] = target: EPHB2 (Homo sapiens (Human), UniProt P29323); experiment: KINOMEscan scanMAX; type: binding; details: 2000 nM; read-out: Percent Control
Sequence of EPHB2 (P29323 19-1055): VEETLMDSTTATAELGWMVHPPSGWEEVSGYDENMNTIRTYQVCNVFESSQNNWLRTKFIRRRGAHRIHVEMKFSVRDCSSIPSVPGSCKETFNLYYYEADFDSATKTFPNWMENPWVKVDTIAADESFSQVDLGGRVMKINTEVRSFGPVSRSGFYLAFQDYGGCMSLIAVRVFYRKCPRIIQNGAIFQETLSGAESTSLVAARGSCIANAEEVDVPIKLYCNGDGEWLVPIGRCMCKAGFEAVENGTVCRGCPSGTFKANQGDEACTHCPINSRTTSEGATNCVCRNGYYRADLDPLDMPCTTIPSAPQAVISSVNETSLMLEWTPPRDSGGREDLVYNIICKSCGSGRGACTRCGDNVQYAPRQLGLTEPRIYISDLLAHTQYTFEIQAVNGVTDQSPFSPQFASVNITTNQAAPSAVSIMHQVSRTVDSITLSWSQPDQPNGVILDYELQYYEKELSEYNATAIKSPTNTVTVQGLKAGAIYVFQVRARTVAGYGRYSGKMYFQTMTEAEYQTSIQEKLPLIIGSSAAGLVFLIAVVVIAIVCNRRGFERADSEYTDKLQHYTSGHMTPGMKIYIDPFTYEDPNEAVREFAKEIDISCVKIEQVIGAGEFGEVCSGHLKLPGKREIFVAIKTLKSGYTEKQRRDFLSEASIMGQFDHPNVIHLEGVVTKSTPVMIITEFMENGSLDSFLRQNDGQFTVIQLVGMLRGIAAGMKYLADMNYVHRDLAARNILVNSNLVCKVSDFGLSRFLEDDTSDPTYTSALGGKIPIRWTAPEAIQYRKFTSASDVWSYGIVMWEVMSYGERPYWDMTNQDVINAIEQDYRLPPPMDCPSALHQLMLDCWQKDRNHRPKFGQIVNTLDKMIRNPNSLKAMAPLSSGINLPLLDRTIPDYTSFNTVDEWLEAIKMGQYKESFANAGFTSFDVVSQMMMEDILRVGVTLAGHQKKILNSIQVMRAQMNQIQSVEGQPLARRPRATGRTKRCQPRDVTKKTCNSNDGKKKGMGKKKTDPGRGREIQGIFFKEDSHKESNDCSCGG

[11] = target: ERK4 (MAPK4) (Homo sapiens (Human), UniProt P31152); experiment: KINOMEscan scanMAX; type: binding; details: 2000 nM; read-out: Percent Control
[12] = target: FLT3(D835V) (Homo sapiens (Human), UniProt P36888, D835V); experiment: KINOMEscan scanMAX; type: binding; details: 2000 nM; read-out: Percent Control
[13] = test system: FLT3(ITD, F691L); experiment: KINOMEscan scanMAX; type: binding, human; details: 2000 nM
[14] = target: JNK1 (MAPK8) (Homo sapiens (Human), UniProt P45983); experiment: KINOMEscan scanMAX; type: binding; details: 2000 nM; read-out: Percent Control
Sequence of JNK1 (MAPK8) (P45983 whole entry): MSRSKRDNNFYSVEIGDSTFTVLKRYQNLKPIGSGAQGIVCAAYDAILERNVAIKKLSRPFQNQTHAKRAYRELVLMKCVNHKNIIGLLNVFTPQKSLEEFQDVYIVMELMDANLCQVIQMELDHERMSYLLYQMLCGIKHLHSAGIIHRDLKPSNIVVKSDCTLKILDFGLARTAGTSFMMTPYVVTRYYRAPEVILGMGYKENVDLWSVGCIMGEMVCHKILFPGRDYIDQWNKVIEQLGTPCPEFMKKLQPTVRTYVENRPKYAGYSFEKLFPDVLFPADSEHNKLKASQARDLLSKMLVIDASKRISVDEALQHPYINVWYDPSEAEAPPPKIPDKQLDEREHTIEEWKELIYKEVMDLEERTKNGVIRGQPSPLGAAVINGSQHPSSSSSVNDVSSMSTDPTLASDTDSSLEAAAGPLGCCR

[15] = target: KIT(V559D) (Homo sapiens (Human), UniProt P10721, V559D); experiment: KINOMEscan scanMAX; type: binding; details: 2000 nM; read-out: Percent Control
Sequence of KIT(V559D) (P10721 26-976 V559D): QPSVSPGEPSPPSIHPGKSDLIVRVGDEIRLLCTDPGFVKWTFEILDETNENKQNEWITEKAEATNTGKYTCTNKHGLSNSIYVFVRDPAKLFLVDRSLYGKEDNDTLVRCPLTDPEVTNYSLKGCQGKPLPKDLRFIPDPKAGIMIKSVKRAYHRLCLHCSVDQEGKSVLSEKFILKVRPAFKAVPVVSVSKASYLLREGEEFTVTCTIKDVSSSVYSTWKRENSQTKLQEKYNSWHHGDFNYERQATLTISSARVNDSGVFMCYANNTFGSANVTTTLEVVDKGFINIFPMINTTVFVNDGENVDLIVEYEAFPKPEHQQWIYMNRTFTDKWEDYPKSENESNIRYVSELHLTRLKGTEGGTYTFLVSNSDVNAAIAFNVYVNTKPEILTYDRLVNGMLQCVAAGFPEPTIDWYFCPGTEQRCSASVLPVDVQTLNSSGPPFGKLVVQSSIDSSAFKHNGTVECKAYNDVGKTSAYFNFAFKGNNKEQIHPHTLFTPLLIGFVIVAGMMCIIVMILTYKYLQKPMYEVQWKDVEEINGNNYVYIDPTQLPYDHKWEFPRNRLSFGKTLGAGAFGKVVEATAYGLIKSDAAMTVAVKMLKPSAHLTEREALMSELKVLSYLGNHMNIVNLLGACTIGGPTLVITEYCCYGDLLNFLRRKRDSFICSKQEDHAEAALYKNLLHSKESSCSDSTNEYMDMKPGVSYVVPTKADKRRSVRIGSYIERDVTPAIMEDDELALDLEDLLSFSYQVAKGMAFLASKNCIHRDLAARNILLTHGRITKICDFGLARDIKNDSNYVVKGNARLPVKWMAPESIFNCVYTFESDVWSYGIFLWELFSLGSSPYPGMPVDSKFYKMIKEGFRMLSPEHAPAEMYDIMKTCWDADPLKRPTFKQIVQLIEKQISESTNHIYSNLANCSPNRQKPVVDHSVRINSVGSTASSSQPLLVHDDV

[16] = target: MAK (Homo sapiens (Human), UniProt P20794); experiment: KINOMEscan scanMAX; type: binding; details: 2000 nM; read-out: Percent Control
[17] = target: MAP3K15 (Homo sapiens (Human), UniProt Q6ZN16); experiment: KINOMEscan scanMAX; type: binding; details: 2000 nM; read-out: Percent Control
[18] = target: MAP4K2 (Homo sapiens (Human), UniProt Q12851); experiment: KINOMEscan scanMAX; type: binding; details: 2000 nM; read-out: Percent Control
[19] = target: MEK4 (MAP2K4) (Homo sapiens (Human), UniProt P45985); experiment: KINOMEscan scanMAX; type: binding; details: 2000 nM; read-out: Percent Control
[20] = target: MELK (Homo sapiens (Human), UniProt Q14680); experiment: KINOMEscan scanMAX; type: binding; details: 2000 nM; read-out: Percent Control
[21] = target: MST1 (STK4) (Homo sapiens (Human), UniProt Q13043); experiment: KINOMEscan scanMAX; type: binding; details: 2000 nM; read-out: Percent Control
[22] = target: MUSK (Homo sapiens (Human), UniProt O15146); experiment: KINOMEscan scanMAX; type: binding; details: 2000 nM; read-out: Percent Control
[23] = target: MYLK (Homo sapiens (Human), UniProt Q15746); experiment: KINOMEscan scanMAX; type: binding; details: 2000 nM; read-out: Percent Control
[24] = target: NEK9 (Homo sapiens (Human), UniProt Q8TD19); experiment: KINOMEscan scanMAX; type: binding; details: 2000 nM; read-out: Percent Control
[25] = target: p38-alpha (MAPK14) (Homo sapiens (Human), UniProt Q16539); experiment: KINOMEscan scanMAX; type: binding; details: 2000 nM; read-out: Percent Control
[26] = target: PCTK2 (CDK17) (Homo sapiens (Human), UniProt Q00537); experiment: KINOMEscan scanMAX; type: binding; details: 2000 nM; read-out: Percent Control
[27] = target: PIK3CA(E545K) (Homo sapiens (Human), UniProt P42336, E545K); experiment: KINOMEscan scanMAX; type: binding; details: 2000 nM; read-out: Percent Control
[28] = target: PIK3CG (Homo sapiens (Human), UniProt P48736); experiment: KINOMEscan scanMAX; type: binding; details: 2000 nM; read-out: Percent Control
Sequence of PIK3CG (P48736 whole entry): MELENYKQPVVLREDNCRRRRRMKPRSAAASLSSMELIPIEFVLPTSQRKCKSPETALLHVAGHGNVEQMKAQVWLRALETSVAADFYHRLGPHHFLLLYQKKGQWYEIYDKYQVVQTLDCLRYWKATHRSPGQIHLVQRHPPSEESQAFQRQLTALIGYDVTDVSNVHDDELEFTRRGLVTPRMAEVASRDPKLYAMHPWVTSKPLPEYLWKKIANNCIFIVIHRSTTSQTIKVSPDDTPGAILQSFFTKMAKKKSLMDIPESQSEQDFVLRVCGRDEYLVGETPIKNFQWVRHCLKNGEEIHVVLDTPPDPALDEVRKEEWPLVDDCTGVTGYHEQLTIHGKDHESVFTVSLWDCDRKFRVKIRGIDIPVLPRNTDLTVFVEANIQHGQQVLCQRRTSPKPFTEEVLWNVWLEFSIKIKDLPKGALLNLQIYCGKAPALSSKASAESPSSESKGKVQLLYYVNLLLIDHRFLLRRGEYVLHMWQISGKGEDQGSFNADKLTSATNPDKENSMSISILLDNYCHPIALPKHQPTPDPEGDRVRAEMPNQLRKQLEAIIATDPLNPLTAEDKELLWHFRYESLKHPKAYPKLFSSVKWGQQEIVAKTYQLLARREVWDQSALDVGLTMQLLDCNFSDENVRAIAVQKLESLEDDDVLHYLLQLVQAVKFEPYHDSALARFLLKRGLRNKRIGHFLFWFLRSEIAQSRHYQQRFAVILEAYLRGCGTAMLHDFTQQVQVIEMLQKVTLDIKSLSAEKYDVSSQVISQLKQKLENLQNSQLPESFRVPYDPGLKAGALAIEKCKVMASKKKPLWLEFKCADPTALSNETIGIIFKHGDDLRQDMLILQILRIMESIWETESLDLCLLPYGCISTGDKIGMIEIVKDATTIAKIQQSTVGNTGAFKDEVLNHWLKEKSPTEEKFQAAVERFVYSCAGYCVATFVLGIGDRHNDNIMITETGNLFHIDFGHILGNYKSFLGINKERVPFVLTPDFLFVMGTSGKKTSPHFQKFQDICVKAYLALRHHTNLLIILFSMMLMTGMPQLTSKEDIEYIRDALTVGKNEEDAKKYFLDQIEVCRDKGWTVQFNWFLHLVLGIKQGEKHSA

[29] = target: RET(V804M) (Homo sapiens (Human), UniProt P07949, V804M); experiment: KINOMEscan scanMAX; type: binding; details: 2000 nM; read-out: Percent Control
[30] = target: ROCK2 (Homo sapiens (Human), UniProt O75116); experiment: KINOMEscan scanMAX; type: binding; details: 2000 nM; read-out: Percent Control
[31] = target: RPS6KA5(Kin.Dom.2-C-terminal) (Homo sapiens (Human), UniProt O75582); experiment: KINOMEscan scanMAX; type: binding; details: 2000 nM; read-out: Percent Control
[32] = target: STK33 (Homo sapiens (Human), UniProt Q9BYT3); experiment: KINOMEscan scanMAX; type: binding; details: 2000 nM; read-out: Percent Control
Sequence of STK33 (Q9BYT3 whole entry): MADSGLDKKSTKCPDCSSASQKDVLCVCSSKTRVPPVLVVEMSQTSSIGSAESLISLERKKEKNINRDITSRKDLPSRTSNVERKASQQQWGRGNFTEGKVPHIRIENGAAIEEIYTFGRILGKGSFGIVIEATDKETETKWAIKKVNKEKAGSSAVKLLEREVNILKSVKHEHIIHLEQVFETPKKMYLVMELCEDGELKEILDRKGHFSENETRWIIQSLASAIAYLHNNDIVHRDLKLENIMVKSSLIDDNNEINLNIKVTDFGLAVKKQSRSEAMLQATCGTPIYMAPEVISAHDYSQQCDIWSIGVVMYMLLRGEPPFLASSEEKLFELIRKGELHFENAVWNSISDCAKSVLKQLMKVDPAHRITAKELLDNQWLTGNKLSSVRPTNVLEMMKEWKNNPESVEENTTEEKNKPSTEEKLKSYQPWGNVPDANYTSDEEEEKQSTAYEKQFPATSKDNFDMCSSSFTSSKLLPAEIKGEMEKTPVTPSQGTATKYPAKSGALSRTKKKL

[33] = target: TBK1 (Homo sapiens (Human), UniProt Q9UHD2); experiment: KINOMEscan scanMAX; type: binding; details: 2000 nM; read-out: Percent Control
[34] = target: TGFBR2 (Homo sapiens (Human), UniProt P37173); experiment: KINOMEscan scanMAX; type: binding; details: 2000 nM; read-out: Percent Control
[35] = target: TRPM6 (Homo sapiens (Human), UniProt Q9BX84); experiment: KINOMEscan scanMAX; type: binding; details: 2000 nM; read-out: Percent Control
[36] = target: TSSK1B (Homo sapiens (Human), UniProt Q9BXA7); experiment: KINOMEscan scanMAX; type: binding; details: 2000 nM; read-out: Percent Control
Sequence of TSSK1B (Q9BXA7 whole entry): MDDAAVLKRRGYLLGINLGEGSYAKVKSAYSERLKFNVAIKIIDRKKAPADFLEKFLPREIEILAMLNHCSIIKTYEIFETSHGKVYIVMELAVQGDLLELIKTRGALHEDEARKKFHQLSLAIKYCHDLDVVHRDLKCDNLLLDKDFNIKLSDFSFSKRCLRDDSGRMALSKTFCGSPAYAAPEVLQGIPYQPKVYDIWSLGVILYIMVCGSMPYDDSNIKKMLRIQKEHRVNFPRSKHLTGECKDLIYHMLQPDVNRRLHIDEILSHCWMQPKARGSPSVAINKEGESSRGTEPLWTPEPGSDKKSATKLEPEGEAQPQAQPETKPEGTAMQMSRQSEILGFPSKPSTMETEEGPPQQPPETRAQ

[37] = target: YANK3 (STK32C) (Homo sapiens (Human), UniProt Q86UX6); experiment: KINOMEscan scanMAX; type: binding; details: 2000 nM; read-out: Percent Control
Sequence of YANK3 (STK32C) (Q86UX6 whole entry): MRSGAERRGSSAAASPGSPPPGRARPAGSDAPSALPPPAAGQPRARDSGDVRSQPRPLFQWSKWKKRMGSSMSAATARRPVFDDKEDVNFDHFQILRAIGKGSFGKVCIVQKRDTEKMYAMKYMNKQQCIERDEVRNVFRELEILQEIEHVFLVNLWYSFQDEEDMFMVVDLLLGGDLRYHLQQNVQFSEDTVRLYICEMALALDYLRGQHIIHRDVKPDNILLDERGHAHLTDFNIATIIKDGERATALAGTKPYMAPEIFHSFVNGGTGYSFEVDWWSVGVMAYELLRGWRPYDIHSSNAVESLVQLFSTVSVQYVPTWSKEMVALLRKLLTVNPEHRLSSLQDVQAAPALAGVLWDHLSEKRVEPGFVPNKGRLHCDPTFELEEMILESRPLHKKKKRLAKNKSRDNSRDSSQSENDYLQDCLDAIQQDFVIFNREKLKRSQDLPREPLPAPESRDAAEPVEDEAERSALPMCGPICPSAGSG

[38] = target: CDK8 in complex with Cyclin C (Homo sapiens (Human), UniProt P49336); experiment: LanthaScreen Eu Kinase Binding Assay
Excerpt: The binding of the tracer to the kinase is detected using a europium-labeled anti-tag antibody, which binds to the kinase of interest. […] The binding of an inhibitor to the kinase competes for binding with the tracer, resulting in a loss of FRET.

Compound: CN1CCN(C(=O)c2ccc3cc(CCNc4ccnc5ccc(C#N)cc45)ccc3c2)CC1 [compound 6148, 4-((2-(6-(4-methylpiperazine-1-carbonyl)naphthalen-2-yl)ethyl)amino)quinoline-6-carbonitrile]
- remaining binding at 2 µM [1]: 89%
- remaining binding at 2 µM [2]: 74%
- remaining binding at 2 µM [3]: 93%
- remaining binding at 2 µM [4]: 100%
- remaining binding at 2 µM [5]: 42%
- remaining binding at 2 µM [6]: 64%
- remaining binding at 2 µM [7]: 70%
- remaining binding at 2 µM [8]: 95%
- remaining binding at 2 µM [9]: 79%
- remaining binding at 2 µM [10]: 86%
- remaining binding at 2 µM [11]: 87%
- remaining binding at 2 µM [12]: 67%
- Percent Control [13]: 59%
- remaining binding at 2 µM [14]: 54%
- remaining binding at 2 µM [15]: 95%
- remaining binding at 2 µM [16]: 100%
- remaining binding at 2 µM [17]: 83%
- remaining binding at 2 µM [18]: 29%
- remaining binding at 2 µM [19]: 58%
- remaining binding at 2 µM [20]: 97%
- remaining binding at 2 µM [21]: 95%
- remaining binding at 2 µM [22]: 90%
- remaining binding at 2 µM [23]: 83%
- remaining binding at 2 µM [24]: 97%
- remaining binding at 2 µM [25]: 84%
- remaining binding at 2 µM [26]: 98%
- remaining binding at 2 µM [27]: 55%
- remaining binding at 2 µM [28]: 76%
- remaining binding at 2 µM [29]: 91%
- remaining binding at 2 µM [30]: 71%
- remaining binding at 2 µM [31]: 100%
- remaining binding at 2 µM [32]: 93%
- remaining binding at 2 µM [33]: 88%
- remaining binding at 2 µM [34]: 96%
- remaining binding at 2 µM [35]: 88%
- remaining binding at 2 µM [36]: 100%
- remaining binding at 2 µM [37]: 100%
- IC50 [38]: 3.8 nM
